IC50 data for 13 molecules are collected here from patent publication EP1801112A1, “Bicyclic pyrimidines and bicyclic 3,4-dihydropyrimidines as inhibitors of cellular proliferation” (Warner-Lambert Company LLC, priority 1998, dated 1999).

pIC50: −log10 of the molar value. Where two headings read alike, the source gives them in different places.

The target of assay [1] is T1, c-Src (Homo sapiens, UniProt P12931).
T1 construct: made in house; host or cells: baculovirus infected insect cells
Nature of the assay: c-Src protein kinase assay. Particulars: poly GluTyr substrate, 5 µM ATP. Format: biochemical. The protocol: The assay was carried out as follows: c-Src kinase was purified from baculovirus infected insect cell lysates using an antipeptide monoclonal antibody directed against the N-terminal amino acids (amino acids 2-17) of c-Src. The antibody, covalently linked to 0.65 µm latex beads, was added to a suspension of insect cell lysis buffer comprised of 150 mM NaCl, 50 mM Tris pH 7.5, 1 mM DTT, 1% NP-40, 2 mM EGTA, 1 mM sodium vanadate, 1 mM PMSF, 1 µg/mL each of leupeptin, pepstatin, and aprotinin. Insect cell lysate containing c-Src protein was incubated with these beads for 3 to 4 hours at 4°C with rotation. At the end of the lysate incubation, the beads were rinsed three times in lysis buffer, resuspended in lysis buffer containing 10% glycerol, and frozen. These latex beads were thawed, rinsed three times in assay buffer (40 mM Tris, pH 7.5, […]) and suspended in the same buffer. In a Millipore 96-well plate with a 0.65 µm polyvinylidine membrane bottom were added the reaction components: 10 µL c-Src beads, 10 µL of 2.5 mg/mL poly GluTyr substrate, 5 µM ATP containing 0.2 µCi labeled ^32P-ATP, 5 µL DMSO containing inhibitors or as a solvent control, and buffer to make the final volume 125 µL. The reaction was started at room temperature by addition of the ATP and quenched 10 minutes later by the addition of 125 µL of 30% TCA, 0.1 M sodium pyrophosphate for 5 minutes on ice. […] The filters were then punched, counted in a liquid scintillation counter, and the data examined for inhibitory activity in comparison to a known inhibitor such as erbstatin. […]

Assay [2] deals with cdk4/D (Homo sapiens, UniProt P11802). The assay can be described thus: Cyclin-Dependent Kinase 4 (cdk4) Assay. Format: biochemical. The conditions noted are these: for IC50: 25 µM ATP, retinoblastoma substrate, read-out: IC50 (µM) cdk4/D. The protocol:
A typical assay, for instance, measures inhibitory activity against the cyclin D dependent kinase 4 enzyme (cdk4/D). […] The cdk4 assay was carried out as follows.
Cyclin-Dependent Kinase 4 (cdk4) Assay
Enzyme assays for IC50 determinations (Tables 1 and 2) and kinetic evaluation were performed in 96 well filter plates (Millipore MADVN6550). The total volume was 0.1 mL containing a final concentration of 20 mM TRIS (tris[hydroxymethyl]aminomethane), at pH 7.4, 50 mM NaCl, 1 mM dithiothreitol, 10 mM MgCl2, 25 µM ATP containing 0.25 µCi of [^32P]ATP, 20 ng of cdk4, 1 µg of retinoblastoma, and appropriate dilutions of a compound of the present invention. All components except the ATP were added to the wells, and the plate was placed on a plate mixer for 2 minutes. The reaction was started by adding [^32P]ATP and the plate was incubated at 25°C for 15 minutes. The reaction was terminated by addition of 0.1 mL of 20% trichloroacetic acid (TCA). The plate was kept at 4°C for at least 1 hour to allow the substrate to precipitate. The wells were then washed five times with 0.2 mL of 10% TCA and ^32P incorporation was determined with a beta plate counter (Wallac Inc., Gaithersburg, MD).

Assay [3] has as its target T2, FGF-1 (flg) receptor tyrosine kinase (Homo sapiens, UniProt P11362).
T2 construct: amplify a fragment of DNA that codes for the intracellular tyrosine kinase domain; made in house; host or cells: SF9 insect cells (baculovirus); crude cell lysate used
The assay can be described thus: FGF Receptor Tyrosine Kinase Assay. The conditions noted are these: glutamate-tyrosine co-polymer substrate, 50 µM ATP. Format: biochemical. As to the method: PDGF and FGF Receptor Tyrosine Kinase Assays
PCR primers were designed to amplify a fragment of DNA that codes for the intracellular tyrosine kinase domain. The fragment was inserted into a baculovirus vector, cotransfected with AcMNPV DNA, and the recombinant virus isolated. SF9 insect cells were infected with the virus to overexpress the protein, and the cell lysate was used for the assay. Assays were performed in 96-well plates (100 µL/incubation/well), and conditions were optimized to measure the incorporation of ^32P from γ^32P-ATP into a glutamate-tyrosine co-polymer substrate. Briefly, to each well was added 82.5 µL of incubation buffer containing 25 mM Hepes (pH 7.0), 150 mM NaCl, 0.1% Triton X-100, 0.2 mM PMSF, 0.2 mM Na3VO4, 10 mM MnCl2, and 750 µg/mL of Poly (4:1) glutamate-tyrosine followed by 2.5 µL of inhibitor and 5 µL of enzyme lysate (7.5 µg/µL FGF-TK or 6.0 µg/µL PDGF-TK) to initiate the reaction. […] The reaction was terminated by the addition of 100 µL of 30% trichloroacetic acid (TCA) containing 20 mM sodium pyrophosphate and precipitation of material onto glass fiber mats (Wallac). […] Nonspecific activity was defined as radioactivity retained on the filters following incubation of samples with buffer alone (no enzyme). Specific enzymatic activity (enzyme plus buffer) was defined as total activity minus nonspecific activity. […]

Assay [4] deals with cdk2/cyclinA (Homo sapiens, UniProt P24941). Nature of the assay: Cyclin-Dependent Kinase Assay cdk2/cyclinA. Format: biochemical. As to the method:
(§1) Cyclin-Dependent Kinase Assays (cdk2/cyclinE, cdk2/cyclinA, cdc2/cyclinB)
(§2) All components except the ATP were added to the wells, and the plate was placed on a plate mixer for 2 minutes. The reaction was begun by addition of [^32P]ATP, and the plate was incubated at 25°C for 15 minutes. The reaction was terminated by addition of 0.1 mL of 20% TCA. The plate was kept at 4°C for at least 1 hour to allow the substrate to precipitate. The wells were then washed five times with 0.2 mL of 10% TCA and ^32P incorporation determined with a beta plate counter (Wallac Inc., Gaithersburg, MD).

Assay [5] has as its target cdc2/cyclinB (Homo sapiens, UniProt P06493). Nature of the assay: Cyclin-Dependent Kinase Assay cdc2/cyclinB. The assay is classed as biochemical. As to the method:
as §1, §2

The target in assay [6] is cdk2/cyclinE (Homo sapiens, UniProt P24941). The assay can be described thus: Cyclin-Dependent Kinase Assay cdk2/cyclinE. Format: biochemical. The protocol:
as §1, §2

The test system of assay [7] is human umbilical vein endothelial cells. Nature of the assay: Human Umbilical Vein Endothelial Cell (HUVEC) Proliferation Assay. Format: cell-based. Particulars: 96 h, four days incubation, Sulphorhodamine B staining. As to the method: The compounds of Formula I are useful for treating cell proliferative disorders concerning angiogenesis and have been evaluated in a human umbilical vein endothelial cell in vitro assay. The assay described below is used to determine the anti-proliferative effects of the invention compounds on human umbilical vein endothelial cells, and the results are shown in Table 7.
Human Umbilical Vein Endothelial Cell (HUVEC) Proliferation Assay
Ninety-six well tissue culture plates are seeded with 100 µL of cells in all wells of rows A->G with row H remaining empty as a blank. HUVEC (Clonetics, San Diego, CA) are grown in endothelial growth medium (EGM media, Clonetics), containing 2% fetal bovine serum. The cell seed density for HUVEC cells is 20,000 per mL. C6 cells (ATCC Cat. No. CCL-107) are seeded at 6000 per mL in F10 medium (nutrient mixture Hemes) supplemented with 15% horse serum, 2.5% fetal bovine serum, and 6.0 mL 200 mM Glutamine per 600 mL medium. A90 cells (Suny, Buffalo, NY) are also seeded at 6000 per mL, but they are grown in RPMI 1640 (Roswell Park Memorial Institute) plus 10% fetal bovine serum. Unless noted otherwise, tissue culture media and components are from GIBCO. The cells are allowed to incubate at 37°C, 5% CO2, and 100% relative humidity for 16-24 hours.
Invention compounds are prepared by dissolving them in DMSO at a concentration of 5 mM, followed by dilution to 50 µM in EGM media. One hundred microliters of the compounds are applied to duplicate wells in column 1 of the previously prepared cell plates. Column 1 row H receives 100 µL of EGM media. The compounds in column 1 are diluted across the plates using serial twofold dilutions.
The plates are incubated as above for an additional four days before being stained with Sulphorhodamine B. Staining is performed as follows: The media is removed from the plates, and the cells are fixed using 10% trichloroacetic acid for 30 minutes at 4°C. Following fixation, the plates are washed five times with distilled water after which 100 µL of Sulphorhodamine B is added to each well. Sulphorhodamine B is dissolved in 1% acetic acid to a concentration of .075%. Following staining, excess stain is removed from the wells, and the plates are washed four times with 1% acetic acid. The plates are allowed to air dry before the bound dye is solubilized in 100 µL of 10 mM unbuffered TRIS base. Absorbance is measured on a 96 well plate reader at […] using a reference filter wavelength of 630 nm. […] Sulphorhodamine B and TRIS are from Sigma Chemical Company. Acetic acid and trichloroacetic acid are from Mallinckrodt AR.

T2 sequence (P11362 478-767 limits assumed): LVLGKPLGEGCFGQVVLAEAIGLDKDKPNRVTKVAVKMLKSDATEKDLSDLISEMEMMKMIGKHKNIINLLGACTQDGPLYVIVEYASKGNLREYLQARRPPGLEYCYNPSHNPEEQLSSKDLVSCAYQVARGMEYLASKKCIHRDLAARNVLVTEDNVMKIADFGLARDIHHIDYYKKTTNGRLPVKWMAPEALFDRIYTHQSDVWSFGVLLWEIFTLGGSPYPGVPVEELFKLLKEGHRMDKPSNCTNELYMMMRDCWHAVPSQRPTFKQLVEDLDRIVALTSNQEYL
T1 sequence (P12931 whole entry): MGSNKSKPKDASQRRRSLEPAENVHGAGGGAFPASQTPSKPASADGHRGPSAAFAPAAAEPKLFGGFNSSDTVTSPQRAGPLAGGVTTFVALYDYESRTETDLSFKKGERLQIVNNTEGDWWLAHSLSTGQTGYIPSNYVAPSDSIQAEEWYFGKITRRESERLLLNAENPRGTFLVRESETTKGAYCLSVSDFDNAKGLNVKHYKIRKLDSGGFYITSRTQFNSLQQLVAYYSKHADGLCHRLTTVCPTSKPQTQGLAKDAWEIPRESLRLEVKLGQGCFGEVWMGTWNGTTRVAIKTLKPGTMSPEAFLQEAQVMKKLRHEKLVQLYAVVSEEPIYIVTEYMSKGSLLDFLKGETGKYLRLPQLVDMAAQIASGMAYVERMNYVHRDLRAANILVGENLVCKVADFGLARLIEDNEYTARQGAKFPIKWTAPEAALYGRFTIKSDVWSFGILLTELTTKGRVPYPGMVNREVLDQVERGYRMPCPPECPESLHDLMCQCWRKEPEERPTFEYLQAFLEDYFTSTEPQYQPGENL
cdk4/D, sequence (P11802 whole entry): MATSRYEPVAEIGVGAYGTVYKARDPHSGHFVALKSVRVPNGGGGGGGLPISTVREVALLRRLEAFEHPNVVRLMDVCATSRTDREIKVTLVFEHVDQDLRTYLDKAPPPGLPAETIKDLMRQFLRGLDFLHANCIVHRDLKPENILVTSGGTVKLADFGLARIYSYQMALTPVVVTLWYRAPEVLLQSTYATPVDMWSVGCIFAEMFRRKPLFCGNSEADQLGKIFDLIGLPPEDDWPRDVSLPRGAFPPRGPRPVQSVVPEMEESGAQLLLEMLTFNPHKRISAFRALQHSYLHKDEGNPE
cdk4/D, sequence (P24385 whole entry, further chain): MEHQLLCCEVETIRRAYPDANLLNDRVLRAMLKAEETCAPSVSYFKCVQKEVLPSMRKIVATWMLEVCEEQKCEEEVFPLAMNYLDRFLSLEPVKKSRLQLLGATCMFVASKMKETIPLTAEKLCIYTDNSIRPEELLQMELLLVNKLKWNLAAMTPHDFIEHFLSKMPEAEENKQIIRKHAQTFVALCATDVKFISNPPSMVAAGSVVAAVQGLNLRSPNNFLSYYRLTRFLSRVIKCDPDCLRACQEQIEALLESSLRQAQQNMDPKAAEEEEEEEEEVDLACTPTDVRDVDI
cdc2/cyclinB, sequence (P06493 whole entry): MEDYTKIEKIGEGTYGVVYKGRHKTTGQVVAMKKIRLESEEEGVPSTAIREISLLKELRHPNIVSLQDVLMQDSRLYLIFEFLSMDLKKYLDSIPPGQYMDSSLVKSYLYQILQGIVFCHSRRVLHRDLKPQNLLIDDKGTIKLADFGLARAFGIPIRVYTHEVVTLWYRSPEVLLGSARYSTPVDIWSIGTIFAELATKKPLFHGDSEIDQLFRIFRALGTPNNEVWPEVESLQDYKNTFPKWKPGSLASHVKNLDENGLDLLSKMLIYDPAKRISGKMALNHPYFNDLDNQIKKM
cdc2/cyclinB, sequence (P14635 whole entry, further chain): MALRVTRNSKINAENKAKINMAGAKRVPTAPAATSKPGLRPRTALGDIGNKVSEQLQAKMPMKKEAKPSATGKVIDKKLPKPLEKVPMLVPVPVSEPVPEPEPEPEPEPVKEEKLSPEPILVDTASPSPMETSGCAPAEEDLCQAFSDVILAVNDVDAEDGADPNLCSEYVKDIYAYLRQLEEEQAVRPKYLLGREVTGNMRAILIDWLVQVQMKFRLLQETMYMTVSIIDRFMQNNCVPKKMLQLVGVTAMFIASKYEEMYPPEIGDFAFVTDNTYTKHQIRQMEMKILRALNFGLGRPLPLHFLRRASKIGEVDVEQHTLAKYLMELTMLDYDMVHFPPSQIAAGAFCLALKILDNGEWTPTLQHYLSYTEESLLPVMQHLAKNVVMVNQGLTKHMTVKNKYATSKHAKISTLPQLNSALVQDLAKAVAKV

`O=C1NCc2cnc(Nc3ccc(N4CCCCC4)cc3)nc2N1C1CCCC1` [Example 10, 1-Cyclopentyl-7-[4-(piperidin-1-yl)phenylamino]-3,4-dihydropyrimido[4,5-d]pyrimidin-2(1H)-one] gave a pIC50 in assay [1] of less than 4.30. The IC50 in assay [2] was 1.55 µM; in assay [3] it was 0.64 µM.

Regarding `O=C1NCc2cnc(Nc3ccc(-n4cccc4)cc3)nc2N1C1CCCC1` [Example 14, 1-Cyclopentyl-7-[4-(pyrrol-1-yl)phenylamino]-3,4-dihydropyrimido[4,5-d]pyrimidin-2(1H)-one], the negative-log IC50 (pIC50) in assay [1] is less than 4.30; in assay [4] it was 5.29; in assay [2], 4.75; in assay [5], less than 4.70.

In assay [1], `O=C1NCc2cnc(Nc3ccc(N4CCC(O)CC4)cc3)nc2N1C1CCCC1` [Example 15, 1-Cyclopentyl-7-[4-(4-hydroxypiperidin-1-yl)phenylamino]-3,4-dihydropyrimido[4,5-d]pyrimidin-2(1H)-one] gave a negative logarithm of the IC50 (pIC50) of 5.62. The IC50 in assay [4] (retinoblastoma substrate, read-out: IC50 (µM) cdk2/A) is 0.6 µM; in assay [6] (retinoblastoma substrate, read-out: IC50 (µM) cdk2/E), 2.2 µM; in assay [2] it was 0.7 µM; in assay [3] it was 0.05 to 0.5 µM; in assay [5] (retinoblastoma substrate, read-out: IC50 (µM) cdkl/B), 16.8 µM.

On to `O=C1NCc2cnc(Nc3ccc(N4CCCCC4CO)cc3)nc2N1C1CCCC1` (stereo not drawn) [Example 19, 1-Cyclopentyl-7-[4-(2-hydroxymethylpiperidin-1-yl)phenylamino]-3,4-dihydro-pyrimido[4,5-d]pyrimidin-2(1H)-one], for which the pIC50 in assay [1] was 5.35; in assay [2] it was 6.30. The same molecule registered an IC50 in assay [3] of 0.05 to 0.5 µM.

As to `CC(C)N1C(=O)NCc2cnc(Nc3ccc(N4CCN(C)CC4)cc3)nc21` [Example 22, 1-Isopropyl-7-[4-(4-methylpiperazin-1-yl)phenylamino]-3,4-dihydropyrimido[4,5-d]pyrimidin-2(1H)-one], the pIC50 was 5.82 in assay [1], 5.03 in assay [4] and 6.47 in assay [2].

In the case of `CC(C)n1c(=O)ncc2cnc(Nc3ccc(N4CCN(C)CC4)cc3)nc21` [Example 40, 1-Isopropyl-7-[4-(4-methylpiperazin-1-yl)phenylamino]pyrimido[4,5-d]pyrimidin-2(1H)-one], the pIC50 was 5.37 in assay [1], 5.35 in assay [4] and 4.78 in assay [6]. The molecule further gave an IC50 in assay [3] of 1.13 µM.

In turn, `CCN(CC)CCCCNc1ncc2c(n1)NC(=O)N(c1cc(OC)cc(OC)c1)C2` [Example 52, 7-(4-Diethylamino-butylamino)-3-(3,5-dimethoxy-phenyl)-3,4-dihydropyrimido[4,5-d]pyrimidin-2(1H)-one] gave a negative logarithm of the IC50 (pIC50) in assay [7] of 5.18.

For the molecule `COc1cc(OC)cc(N2Cc3cnc(NCCNCc4ccncc4)nc3NC2=O)c1` [Example 54, 3-(3,5-Dimethoxy-phenyl)-7-{2-[(pyridin-4-ylmethyl)-amino]-ethylamino}-3,4-dihydro-pyrimido[4,5-d]pyrimidin-2(1H)-one], the pIC50 in assay [7] is less than 4.60.

`COc1cc(OC)cc(N2Cc3cnc(NCCCN4CCN(C)CC4)nc3NC2=O)c1` [Example 54a, 3-(3,5-Dimethoxy-phenyl)-7-[3-(4-methyl-piperazin-1-yl)-propylamino]-3,4-dihydro-1H-pyrimido[4,5-d]pyrimidin-2(1H)-one]: the pIC50 in assay [7] is 5.22.

`COc1cc(OC)cc(N2Cc3cnc(NCCCCN4CCN(C)CC4)nc3NC2=O)c1` [Example 54b, 3-(3,5-Dimethoxy-phenyl)-7-[4-(4-methyl-piperazin-1-yl)-butylamino]-3,4-dihydro-pyrimido[4,5-d]pyrimidin-2(1H)-one] gave a pIC50 in assay [7] of 5.30.

Regarding `COc1cc(OC)cc(N2Cc3cnc(NCCCCCN4CCN(C)CC4)nc3NC2=O)c1` [Example 54c, 3-(3,5-Dimethoxy-phenyl)-7-[5-(4-methyl-piperazin-1-yl)-pentylamino]-3,4-dihydro-pyrimido[4,5-d]pyrimidin-2(1H)-one], the negative logarithm of the IC50 (pIC50) in assay [7] is 5.24.

For `CCN(CC)CCCNc1ncc2c(n1)NC(=O)N(c1cc(OC)cc(OC)c1)C2` [Example 55, 7-(3-Diethylamino-propylamino)-3-(3,5-dimethoxy-phenyl)-3,4-dihydropyrimido[4,5-d]pyrimidin-2(1H)-one], the pIC50 in assay [7] is less than 4.60.

As for `CCN1C(=O)N(c2cc(OC)cc(OC)c2)Cc2cnc(NCCNCc3ccncc3)nc21` [Example 56, 3-(3,5-Dimethoxy-phenyl)-1-ethyl-7-{2-[(pyridin-4-ylmethyl)-amino]-ethylamino}-3,4-dihydro-pyrimido[4,5-d]pyrimidin-2(1H)-one], in assay [7], the negative-log IC50 (pIC50) was 5.71.
